Source: patent US20200270309A1, “MALEIMIDE GROUP-MODIFIED ANGIOGENESIS INHIBITOR HM-1 AND USE THEREOF” (NANJING ANJI BIOLOGICAL TECHNOLOGY CO., LTD, priority 2017, published 2020)
Marks after values point to notes of the source that are not given here. Peptide text beside a SMILES is read from it. * marks the point of attachment. X63 = O=C1C=CC(=O)N1c1ccccc1CCCCCCC(=O)*; X49 = O=C1C=CC(=O)N1c1ccccc1CCCCCC(=O)*

Assays:
[1] = system: retinal neovascularization (OIR model); assay: Retinal vessels in OIR mice; assay type: in vivo, C57/B16 mice; conditions: for Area of neovascular plexus (mm^2): dose 0.05 μM in the vitreous chamber on day 13, retinal vessels evaluated on day 17; for Inhibition rate (%): dose 0.05 μM in the vitreous chamber on day 13, retinal vessels evaluated on day 17, vs negative control
From the text: Establishment of an OIR model: Young mice and their mothers were exposed in a 75% hyperoxic environment from day 7 to day 12 after the birth of C57/B16 mice, which caused capillaries in their central retina to disappear rapidly. The mice were returned to the indoor air on day 12, retinal vessels exposed to hyperoxia quickly disappeared, causing extensive abnormal neoangiogenesis, and the central part of the retina remained largely avascular for a long time. After the blood vessels disappeared completely, the mice were injected with normal saline (a negative group), X1-X12, X13-X44, X45-X90 in the vitreous chamber on day 13 respectively, and retinal vessels were evaluated on day 17 ([…] of Texas red labeled tomato agglutinin was injected into the left ventricle to mark unclosed vessels and circulated for 5 min).

[2] = system: human retinal capillary endothelial cells (HRCECs); assay: MTT proliferation inhibition on HRCECs; assay type: cell-based; conditions: 48 h; for A570 nm-A630 nm: mean±SD
Description: An MTT method was used to detect the inhibitory activity of the angiogenesis inhibitor polypeptide on proliferation of HRCECs. HRCECs were digested and collected with trypsin after being cultured in an incubator at 37° C. with 5% CO2 to a density of 90% or more. The cells were resuspended with a culture solution and counted under a microscope, the cell concentration was adjusted to 3.0×10^4 cells/mL, and the cell suspension was inoculated into a 96-well plate at 100 μL/well, and cultured overnight in an incubator at 37° C. with 5% CO2. After the cells were completely adhered to the wall, cells with the addition of the angiogenesis inhibitor polypeptide were used as administration groups, cells with the addition of Avastin were used as a positive control group, and cells with the addition of culture solution without any drugs were used as a blank control group. The cells were diluted to respective predetermined concentrations with the culture solution. The diluent were added into 96-well plates respectively at 100 μL per well, and the cells were cultured at 37° C. for 48 h in an incubator with 5% CO2. 20 μL of 5 mg/mL MTT was added into each well of the 96-well plate, and the cultivation was continued for 4 h. The culture medium was removed, and 100 μL of DMSO was added to each well for dissolution. The absorbance was measured at a detection wavelength of 570 nm and a reference wavelength of 630 nm using a microplate reader, and the PIR was calculated by the formula as follows:
PIR (%)=1−administration group/negative group
The experiment was repeated independently three times. The results were expressed as mean±SD, and statistical T test was conducted. *P<0.05 indicates significant difference, and **P<0.01 indicates extremely significant difference.

[3] = system: collagen-induced arthritis; assay: Mouse collagen-induced arthritis (CIA) animal model; assay type: in vivo; conditions: DBA/1 mice CIA model, dose 4.0 mg/kg, subcutaneous from day 30, n=10; for Clinical score: highest score 16
[4] = system: HUVECs; assay: Transwell migration inhibition on HUVECs; assay type: cell-based, human; conditions: for Inhibition rate (%): HUVEC migration vs blank control; for Cell migration number (Mean ± SD): HUVECs, transwell, 24 h
[5] = system: corneal neovascularization; assay: Corneal neovascularization induced by alkali burn in BALB/c mice; assay type: in vivo; set-up: Inhibition rate (corneal neovascularization): concentration or dose not given beside the values; conditions: day 14 after alkali burn, vitreous injection once a day for 1 week
[6] = system: choroidal neovascularization; assay: Choroidal neovascularization in rats (laser photocoagulation, FFA); assay type: in vivo; conditions: BN rats
Description: 6-8 weeks male BN rats were fully anesthetized by intraperitoneal injection of 846 compound anesthetic with a concentration of 0.5 mL/kg. Compound tropicamide eye drops were used once 5 min before laser photocoagulation to fully dilate the pupils of both eyes. The animals were fixed and subjected to krypton laser photocoagulation equidistantly around an optic disc with the aid of a −53.00D corneal contact lens at a distance of 2PD from the optic disc. A total of 8 photocoagulation spots were obtained. The laser wavelength was 647.1 nm, the power was 350 mW, and the diameter and time of the photocoagulation spots were 50 μm and 0.05 s respectively. Fundus photography was performed immediately after photocoagulation. FFA, histopathology and transmission electron microscopy were performed on the days 3, 7, 14, 21 and 28 after photocoagulation respectively.
Through fundus photography and FFA examination, it was confirmed that the fluorescein leakage of the photocoagulation spot reached its peak on day 21 after photocoagulation. At the same time, histopathological examination was carried out.
Rats with successful modeling were randomly grouped, with 5 rats in each group. The groups were marked as a negative control group and X1-X90 treatment groups respectively. The rats were injected with normal saline and X1-X90 (the doses of X1-X90 were each 0.05 μM) in the vitreous chamber once a day for 1 week. FFA examination was carried out 3 days, 7 days, 14 days and 28 days after administration.

[7] = Half-lives and pharmacokinetic parameters of polypeptides vs HM-1; conditions: in vivo; for half-life: T1/2β (half-life)
[8] = system: xylene-induced ear swelling; assay: Xylene-induced mouse ear swelling; assay type: in vivo; conditions: Kunming mice, injected once a day for 5 days; for Swelling degree (mg) / Swelling degree: right minus left ear piece weight 2 h after xylene; for Inhibition rate (%): xylene-induced ear swelling
Description: Kunming mice were taken, a normal saline group was taken as a blank control group, an aspirin group (200 mg/kg) was taken as a positive control group, and X1-X90 administration groups were taken as test groups. The mice were injected once a day for 5 consecutive days. The blank control group was given an equal volume of normal saline. One hour after the last administration, 0.05 mL of xylene was applied to both sides of the right ear of each mouse to cause inflammation, while no drug was applied to the left ear as a normal ear. Two hours later, the mice were put to death by dislocation. Two ears were cut along the auricle. Ear pieces were taken with a puncher and weighed, and the swelling degree and the swelling rate were calculated. Swelling degree=right ear piece weight-left ear piece weight, swelling rate=(swelling degree/left ear piece weight)*100%. Statistical t-test was conducted on the experimental results. *P<0.05 indicates significant difference, and **P<0.01 indicates extremely significant difference.

[9] = day 3 after administration, total light spot number was 297, 0.05 μM in the vitreous chamber once a day for 1 week
[10] = day 7 after administration, total light spot number was 186, 0.05 μM in the vitreous chamber once a day for 1 week
[11] = day 14 after administration, total light spot number was 137, 0.05 μM in the vitreous chamber once a day for 1 week
[12] = day 28 after administration, total light spot number was 69, 0.05 μM in the vitreous chamber once a day for 1 week

C[C@H](NC(=O)CNC(=O)[C@H](CCCNC(=N)N)NC(=O)CCCCCc1ccccc1N1C(=O)C=CC1=O)C(=O)N[C@@H](CC(=O)O)C(=O)N[C@@H](CCCNC(=N)N)C(=O)N[C@@H](C)C(=O)NCC(=O)NCC(=O)NCC(=O)NCC(=O)N[C@@H](CCCNC(=N)N)C(=O)NCC(=O)N[C@@H](CC(=O)O)C(=O)O [X17] (X49-RGADRAGGGGRGD-OH)
Area of neovascular plexus (mm^2) [1]: 0.084 ± 0.009 mm^2 | Inhibition rate (%) [1]: 60.38%** | Inhibition rate (%) ([2]; dose 0.05 μM): 55.10%* | A570 nm-A630 nm ([2]; dose 0.05 μM): 0.5934 ± 0.03887 | Inhibition rate (%) ([2]; dose 0.1 μM): 62.16%** | A570 nm-A630 nm ([2]; dose 0.1 μM): 0.5001 ± 0.02347 | Inhibition rate (%) ([2]; dose 0.2 μM): 65.08%* | A570 nm-A630 nm ([2]; dose 0.2 μM): 0.4616 ± 0.02184 | Joint swelling degree (mm) [3]: 0.79 ± 0.12 mm | Left and right paw swelling degree (mm) [3]: 0.78 ± 0.17 mm | Clinical score [3]: 9.13 ± 1.31 | Inhibition rate (%) ([4]; dose 0.05 μM): 48.96% | Inhibition rate (%) ([4]; dose 0.1 μM): 54.89% | Inhibition rate (%) ([4]; dose 0.2 μM): 57.52% | Cell migration number (Mean ± SD) ([4]; dose 0.05 μM): 547.07 ± 50.72 | Cell migration number (Mean ± SD) ([4]; dose 0.1 μM): 483.55 ± 66.46 | Cell migration number (Mean ± SD) ([4]; dose 0.2 μM): 455.35 ± 68.52 | Inhibition rate (corneal neovascularization) [5]: 48.05% | MVD (corneal microvessel density) [5]: 34.93 ± 4.725 | CNV Incidence (%) [6, 9]: 54.88% | Leakage Light spot number [6, 9]: 163 | CNV Incidence (%) [6, 10]: 48.39% | Leakage Light spot number [6, 10]: 90 | CNV Incidence (%) [6, 11]: 42.34% | Leakage Light spot number [6, 11]: 58 | CNV Incidence (%) [6, 12]: 40.58% | Leakage Light spot number [6, 12]: 28 | AUC(0-inf) [7]: 30000 ± 7060 ng·h/mL | MRT inf [7]: 53.8 ± 12.3 h | clearance [7]: 0.555 mL/min/kg | half-life [7]: 37.26 ± 0.29 h | Swelling degree (mg) ([8]; dose 2 mg/kg): 4.65 ± 0.79* mg | Inhibition rate (%) ([8]; dose 2 mg/kg): 25.36% | Swelling degree (mg) ([8]; dose 4 mg/kg): 4.43 ± 0.75* mg | Inhibition rate (%) ([8]; dose 4 mg/kg): 28.89% | Swelling degree (mg) ([8]; dose 8 mg/kg): 3.53 ± 0.1** mg | Inhibition rate (%) ([8]; dose 8 mg/kg): 43.34%

C[C@H](NC(=O)CNC(=O)[C@H](CCCNC(=N)N)NC(=O)CCCCCCc1ccccc1N1C(=O)C=CC1=O)C(=O)N[C@@H](CC(=O)O)C(=O)N[C@@H](CCCNC(=N)N)C(=O)N[C@@H](C)C(=O)NCC(=O)NCC(=O)NCC(=O)NCC(=O)N[C@@H](CCCNC(=N)N)C(=O)NCC(=O)N[C@@H](CC(=O)O)C(=O)O [X18] (X63-RGADRAGGGGRGD-OH)
Area of neovascular plexus (mm^2) [1]: 0.119 ± 0.011 mm^2 | Inhibition rate (%) [1]: 43.87%* | Inhibition rate (%) ([2]; dose 0.05 μM): 42.60%* | A570 nm-A630 nm ([2]; dose 0.05 μM): 0.7586 ± 0.05265 | Inhibition rate (%) ([2]; dose 0.1 μM): 52.30%** | A570 nm-A630 nm ([2]; dose 0.1 μM): 0.6304 ± 0.03508 | Inhibition rate (%) ([2]; dose 0.2 μM): 61.78%* | A570 nm-A630 nm ([2]; dose 0.2 μM): 0.5051 ± 0.08266 | Joint swelling degree (mm) [3]: 0.72 ± 0.11 mm | Left and right paw swelling degree (mm) [3]: 0.79 ± 0.12 mm | Clinical score [3]: 8.91 ± 1.29 | Inhibition rate (%) ([4]; dose 0.05 μM): 40.73% | Inhibition rate (%) ([4]; dose 0.1 μM): 41.02% | Inhibition rate (%) ([4]; dose 0.2 μM): 44.55% | Cell migration number (Mean ± SD) ([4]; dose 0.05 μM): 635.26 ± 59.22 | Cell migration number (Mean ± SD) ([4]; dose 0.1 μM): 632.13 ± 55.39 | Cell migration number (Mean ± SD) ([4]; dose 0.2 μM): 594.30 ± 45.38 | Inhibition rate (corneal neovascularization) [5]: 50.18% | MVD (corneal microvessel density) [5]: 33.50 ± 5.649 | CNV Incidence (%) [6, 9]: 53.87% | Leakage Light spot number [6, 9]: 160 | CNV Incidence (%) [6, 10]: 46.24% | Leakage Light spot number [6, 10]: 86 | CNV Incidence (%) [6, 11]: 45.99% | Leakage Light spot number [6, 11]: 63 | CNV Incidence (%) [6, 12]: 44.93% | Leakage Light spot number [6, 12]: 31 | AUC(0-inf) [7]: 27200 ± 7310 ng·h/mL | MRT inf [7]: 48.7 ± 14.1 h | clearance [7]: 0.613 mL/min/kg | half-life [7]: 33.75 ± 0.27 h | Swelling degree ([8]; dose 2 mg/kg): 5.42 ± 0.18 mg | Inhibition rate (%) ([8]; dose 2 mg/kg): 13.00% | Swelling degree ([8]; dose 4 mg/kg): 5.28 ± 0.46 mg | Inhibition rate (%) ([8]; dose 4 mg/kg): 15.25% | Swelling degree (mg) ([8]; dose 8 mg/kg): 4.18 ± 0.9** mg | Inhibition rate (%) ([8]; dose 8 mg/kg): 32.91%
